Assay results: patent publication US20160138077A1, “MONITORING AND ASSESSING DEACETYLASE ENZYME ACTIVITY” (THE GENERAL HOSPITAL CORPORATION, priority 2013, published 2016)

Assays:
[1] = target: T1, HDAC1 (Homo sapiens, UniProt Q13547); assay: LCMS characterization of enzymatic deacetylation by HDAC1; assay type: biochemical; settings: 5 μM probe, 12 hours at 37° C.
T1 construct: purchased Cayman Chemicals
Procedure: The enzymatic cleavage of HP-1 and HP-2 was analyzed by performing LCMS assays with HeLa nuclear extract (AnaSpec), HeLa whole cell lysate (Santa Cruz Inc.), and the following purified HDAC isoforms: 1, 2, 3, 6 and 8 (HDAC1, 3 and 8 from Cayman Chemicals and HDAC2 and 6 provided by Dr. Stephen Haggarty). Solutions containing (i) vehicle with DMSO in HDAC buffer, (ii) 5 μM probe in HDAC buffer, (iii) 5 μM probe and HDAC enzyme/HeLa nuclear extract/HeLa whole cell lysate in HDAC buffer, or (iv) 5 μM probe and HDAC enzyme/HeLa nuclear extract/HeLa whole cell lysate pre-incubated with 10 μM SAHA (Provided by Dr. Stephen Haggarty) in HDAC buffer were incubated for 12 hours at 37° C. Following incubation, a 20 μL aliquot of supernatant from each sample was analyzed by LCMS. […] For HP-1, the (M+H)^+ ion for the corresponding aldehyde (8, DHP-1) was detected, which formed following reaction of the initial imine deacetylation product with water. […] The peak area for each detected compound was measured to determine the % deacetylation of each probe. All assay samples were analyzed in triplicate. […]
LCMS characterization of HDAC enzymatic action on HP-1 and HP-2. […] Following incubation, an aliquot of supernatant from each sample was analyzed by LCMS. […] The peak area for each detected compound was measured to determine the % deacetylation of each probe (full experimental details in Example 1).

[2] = tested on: HeLa cells; assay: Determination of HDAC activity in HeLa cells by LC-MS; assay type: cell-based; settings: live HeLa cells, 5 μM, over 24 h
Procedure: HeLa cell culture and treatment with HP-1 and HP-2. HeLa cells (ATCC) were grown as a monolayer in Eagles Minimum Essential Medium (EMEM, GIBCO, BRL, Gaithersburg, Md.) with 10% Fetal Bovine Serum (FBS, GIBCO, BRL, Gaithersburg, Md.) and 1% penicillin/streptomycin ([…]). All cell culture dishes were maintained in a humidified atmosphere with 5% CO2 at 37° C.
Determination of HDAC activity in HeLa cells by LC-MS. HDAC activity in HeLa cells was analyzed by performing an LCMS assay. Solutions of HP-1 and HP-2 (200 mM each) were prepared in DMSO and diluted in HDAC buffer to a final concentration of 100 μM. […] Cells were scraped off of the flask, lysed in milipore water (90 μL) using a mechanical homogenizer, centrifuged (at 14,000×g for 2 min) and 20 μL aliquot of supernatant from each sample was analyzed by LCMS. […] The peak area for each detected compound was measured to determine the % conversion. For HP-1, the corresponding (M+H)^+ ion was detected. […] The peak area for each detected compound was measured to determine the % conversion of each probe. […]
Determination of HDAC activity in HeLa cells by LC-MS. […] Cells were scraped off of the flask, lysed in Millipore water using a mechanical homogenizer, and supernatant of the lysed samples were analyzed by LC-MS. […] The peak area for each detected compound was measured to determine the % conversion versus time (full experimental details in Example 1).

T1 sequence (Q13547 whole entry): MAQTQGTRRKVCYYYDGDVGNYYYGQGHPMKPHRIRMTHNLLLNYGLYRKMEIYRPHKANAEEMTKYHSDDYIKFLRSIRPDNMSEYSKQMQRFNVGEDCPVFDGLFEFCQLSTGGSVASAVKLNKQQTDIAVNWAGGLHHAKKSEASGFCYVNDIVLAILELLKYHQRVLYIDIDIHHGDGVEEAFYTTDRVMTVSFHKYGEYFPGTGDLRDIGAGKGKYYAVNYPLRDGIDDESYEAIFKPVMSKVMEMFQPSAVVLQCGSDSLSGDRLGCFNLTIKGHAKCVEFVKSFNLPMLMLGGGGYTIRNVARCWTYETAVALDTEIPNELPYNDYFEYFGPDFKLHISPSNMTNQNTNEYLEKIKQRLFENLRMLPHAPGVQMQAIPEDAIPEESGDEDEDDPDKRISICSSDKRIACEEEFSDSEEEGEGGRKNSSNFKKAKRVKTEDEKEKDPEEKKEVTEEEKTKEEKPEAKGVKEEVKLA

## CC(=O)NC=CCCCCNC(=O)CCCCCNc1ccc([N+](=O)[O-])c2nonc12 [HP-1]
[1]; HDAC1, +SAHA (10 μM pre-incubated)
  % HP-1 to DHP-1: 0%
[1]; HDAC1, −SAHA, maximum detected conversion, 1.5:1 trans:cis mixture
  % HP-1 to DHP-1: 15%
[2]; absence of SAHA, LCMS of supernatants and lysates
  HP-1 cleaved: 80%
[2]; addition of SAHA (10 μM)
  Cleavage of HP-1: 20%
